The source of these data is patent US20250228878A1, “METHOD FOR THE SYNTHESIS OF EVOC PROBES” (OWLSTONE MEDICAL LIMITED, priority 2021, published 2025).

In series [1] the test system is blood cells. The series can be described thus: D5-ethanol release in blood incubated with D5-EG or D5-EG-ME (headspace measurement). As to conditions: human blood, 37° C., 2 hours. It counts as cell-based. As for the experimental part: Aim—The following experiment was performed to compare the levels of D5-ethanol produced by blood cells from both D5-ethyl-βD-glucuronide and the D5-ethyl-βD-glucuronide-methyl ester impurity. To understand how the probe behaves in human blood. To determine the background cleavage of the probe (D5-ethyl-βD-glucuronide) and the methyl ester (D5-ethyl-βD-glucuronide-methyl ester) in blood at different concentrations. The cleaved D5-ethanol was extracted from the headspace of the blood and measured with the D5-ethanol analytical method.
• Dilute D5-ethyl-βD-glucuronide in PBS to 1 ug/ul. • Dilute 10 ul of this in 90 ul PBS to 100 ng/ul to use for smaller doses. • Blood drawn on the same day will be despatched to OML after it has been screened. • Aliquot 600 ul of blood into ITEX headspace vials. 10 vials for probe samples and 10 vials for methyl ester samples. • Add indicated concentration of D5-ethyl-βD-glucuronide (Table 1) and D5-ethyl-bD-glucuronide meth methyl ester (Table 2) in each vial. • Incubate all samples at 37° C. for 2 hours in the water bath. • After 2 hours add 100 uM D-saccharic acid-1,4-lactone with a syringe through septum of each ITEX vial and mix gently to inhibit β-glucuronidase activity and put on ice (4° C.) • Place samples on ITEX autosampler and measure D5-ethanol with D5-ethanol analytical method
Results—β-glucuronidase is only expected to be present intracellularly in blood cells. D5-ethyl-βD-glucuronide (D5-EG) is not cell permeable and would therefore not enter into the cells to get cleaved by b-glucuronidase to produce D5-ethanol. Low D5-ethanol levels are therefore expected in blood when incubated with D5-ethyl-βD-glucuronide.
D5-ethyl-βD-glucuronide-methyl ester (D5-EG-ME) is expected to be more cell permeable. If this is the case it would be able to enter into the cell to get cleaved by intracellular β-glucuronidase resulting in an increased in D5-ethanol production.

In series [2] the target is T1, β-glucuronidase (Homo sapiens, UniProt P08236).
T1 construct: from tissue; host or cells: in vivo, human subjects (healthy subjects and a lung cancer patient); endogenous enzyme
T1 sequence (P08236 23-651): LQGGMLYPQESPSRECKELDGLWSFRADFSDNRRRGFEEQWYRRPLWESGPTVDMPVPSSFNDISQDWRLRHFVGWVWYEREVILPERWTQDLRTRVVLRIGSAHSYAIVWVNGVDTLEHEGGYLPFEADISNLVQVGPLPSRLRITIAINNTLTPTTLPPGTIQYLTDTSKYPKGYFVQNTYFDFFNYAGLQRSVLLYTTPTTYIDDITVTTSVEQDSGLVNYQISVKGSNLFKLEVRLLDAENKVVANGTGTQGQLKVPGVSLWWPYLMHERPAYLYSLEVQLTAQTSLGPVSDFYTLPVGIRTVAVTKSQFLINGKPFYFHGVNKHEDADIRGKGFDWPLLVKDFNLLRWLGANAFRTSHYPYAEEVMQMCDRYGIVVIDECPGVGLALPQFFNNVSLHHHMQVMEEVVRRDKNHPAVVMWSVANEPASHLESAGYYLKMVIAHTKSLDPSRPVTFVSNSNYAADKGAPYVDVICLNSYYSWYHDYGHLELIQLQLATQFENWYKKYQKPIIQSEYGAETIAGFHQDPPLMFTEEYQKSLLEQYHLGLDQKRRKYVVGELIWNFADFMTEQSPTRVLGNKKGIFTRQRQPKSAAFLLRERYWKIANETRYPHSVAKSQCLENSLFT
The series is described as follows: Breath test: D5-ethanol in exhaled breath after intravenous probe administration (TD-GC-MS). Format: in vivo. To be noted: for D5-ethanol detected on breath: 2 mg/kg intravenous. As for the experimental part: D5-ethyl-βD-glucuronide was administered to healthy subjects and a lung cancer patient at a concentration of 2 mg/kg. Administration was intravenous.
The concentration of the metabolite was then measured in breath samples. Breath samples were collected using ReCIVA® Breath Sampler at the indicated times following probe administration. Following breath collection sorbent tubes were removed from ReCIVA®, capped off and sent to Owlstone Medical for analysis. At Owlstone Medical the sorbent tubes were analysed for D5-ethanol using TD-GC-MS.

The subject of series [3] is tumor specific extracellular β-glucuronidase. As to conditions: healthy versus tumor bearing mice; cited from earlier work.
The mark [4] stands for this setting: highest concentration tested (FIG. 2).

Structures are written as SMILES.

With `[2H]C([2H])([2H])C([2H])([2H])O[C@@H]1O[C@H](C(=O)O)[C@@H](O)[C@H](O)[C@H]1O` [D5-EG, D5-ethyl-βD-glucuronide], the “D5-ethanol production from blood cells” value in series [1] (setting [4]) is given as “only a small amount of D5-ethanol were produced”. Also, the “D5-ethanol detected on breath” value is on record as “No D5-ethanol was detected” in series [2] (healthy controls) and “A D5 ethanol signal was detected” in series [2] (lung cancer patient (Stage IIA)). In series [2] (lung cancer patient, 2 mg/kg intravenous (FIG. 6)), the “earliest time at which the metabolite (D5-ethanol) can be detected in breath after administration” value was 10 min. In addition, the “D5-ethanol signal in breath” value in series [3] is reported as “discriminatory D5-ethanol signal in the breath of mice with tumors”.

In the case of `[2H]C([2H])([2H])C([2H])([2H])O[C@@H]1O[C@H](C(=O)OC)[C@@H](O)[C@H](O)[C@H]1O` [D5-EG-ME, D5-ethyl-βD-glucuronide-methyl ester], the “D5-ethanol production from blood cells” value in series [1] (setting [4]) and in series [1] (second highest concentration tested (FIG. 2)) was “much higher D5-ethanol levels produced” throughout.
